The results in this text go back to ChEMBL document CHEMBL3217470, “Binding free energy calculations and biological testing of novel thiobarbiturates as inhibitors of the human NAD+dependent histone deacetylase Sirt2” (Medchemcomm, 2012).

Molecules are shown by their SMILES.

The target in the experiment is T1, NAD-dependent protein deacetylase sirtuin-2 (Homo sapiens, UniProt Q8IXJ6).
T1 sequence (Q8IXJ6 whole entry): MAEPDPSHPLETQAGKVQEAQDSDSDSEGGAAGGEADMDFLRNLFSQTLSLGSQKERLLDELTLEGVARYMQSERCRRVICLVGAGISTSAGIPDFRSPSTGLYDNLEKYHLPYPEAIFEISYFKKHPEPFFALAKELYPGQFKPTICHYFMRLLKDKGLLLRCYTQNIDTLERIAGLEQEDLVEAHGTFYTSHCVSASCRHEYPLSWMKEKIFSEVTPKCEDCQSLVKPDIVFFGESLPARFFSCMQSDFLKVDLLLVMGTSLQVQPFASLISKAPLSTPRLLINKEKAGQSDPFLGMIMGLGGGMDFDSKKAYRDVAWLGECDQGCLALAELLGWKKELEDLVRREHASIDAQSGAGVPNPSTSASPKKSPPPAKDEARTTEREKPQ
Nature of the experiment: Inhibition of human recombinant Sirt2 using ZMAL as substrate after 4 hrs by fluorescent deacetylase assay.

As to `O=C1NC(=S)NC(=O)C1=Cc1ccc(OCc2cccc3ccccc23)cc1`, the IC50 (read-out: IC50) came out at 2.6 µM.

Consider `CC(C)Oc1ccc(C=C2C(=O)NC(=S)NC2=O)cc1`, for which the IC50 (read-out: IC50) came to 5.8 µM.

Take `COC(=O)c1ccc(-c2ccc(C=C3C(=O)NC(=S)NC3=O)o2)cc1`: the IC50 (read-out: IC50) came out at 5.7 µM.

As for `O=C1NC(=S)NC(=O)C1=Cc1cn(-c2ccccc2)nc1-c1ccc(Cl)cc1`, where the note is “read-out: IC50”, the IC50 was determined as 3.8 µM.

Turning to `COc1ccc(CC2C(=O)NC(=S)NC2=O)cc1OCc1ccccc1`, the IC50 (read-out: IC50) came out at 5.8 µM.

Turning to `O=C1NC(=S)NC(=O)C1=Cc1ccc(OCc2ccccc2)c(OCc2ccccc2)c1`, the IC50 (read-out: IC50) was found to be 3.9 µM.

Consider `O=C1NC(=S)NC(=O)C1=Cc1ccc(-c2ccc(C(=O)OCc3cccc(Cl)c3)cc2)o1`, for which the IC50 by setting is: (read-out: IC50) 2.2 µM; (read-out: pIC50 (converted)) 6.46 µM.

Consider `CC(=O)c1ccc(-c2ccc(C=C3C(=O)NC(=S)NC3=O)o2)cc1`, for which the IC50 (read-out: IC50) came to 5.5 µM.

With `O=C1NC(=S)NC(=O)C1=Cc1ccc(-c2ccc(Cl)c(Cl)c2)o1`, the IC50 (read-out: IC50) turned out to be 1.5 µM.

For `C=CCN1C(=O)/C(=C/c2ccc(-c3cccc(Cl)c3Cl)o2)C(=O)NC1=S`, the IC50 (read-out: IC50) stood at 2.8 µM.

For `O=C1NC(=S)NC(=O)C1=Cc1ccc(-c2ccc(Cl)cc2)o1`, the IC50 is, setting by setting: (read-out: IC50) 6.5 µM; (read-out: pIC50 (converted)) 2.19 µM.

For `O=C1NC(=S)NC(=O)C1=Cc1ccc(Sc2ccccc2)o1`, for the setting “read-out: IC50”, the IC50 is 3.5 µM.

Consider `CCOc1ccc(C=C2C(=O)NC(=S)NC2=O)cc1CCc1ccccc1`, for which the IC50 (read-out: IC50) amounted to 4.9 µM.

In the case of `O=C1NC(=S)NC(=O)C1=Cc1cc(OCc2ccc(Br)cc2)ccc1Cl`, the IC50 (read-out: IC50) worked out at 1.8 µM.
